Experimental data as given in US20250163104A1, “MACROCYCLIC IMMUNOMODULATORS” (priority 2021, published 2025).
Where a SMILES comes first, the peptide text is derived from it. Bridges are numbered along the chain shown (N, C = ends). [ ]: non-standard residue; d: D form. The star is where a group is joined. Phe(3-CF3) = N[C@@H](Cc1cccc(C(F)(F)F)c1)C(=O)O; Ala(morpholin-4-yl) = N[C@@H](CN1CCOCC1)C(=O)O; Phe(4-COOH) = N[C@@H](Cc1ccc(C(=O)O)cc1)C(=O)O; Bip = N[C@@H](Cc1ccc(-c2ccccc2)cc1)C(=O)O; Phe(3-Me) = Cc1cccc(C[C@H](N)C(=O)O)c1; Val(3-OH) = CC(C)(O)[C@H](N)C(=O)O; aIle = CC[C@@H](C)[C@H](N)C(=O)O; 4Pal = N[C@@H](Cc1ccncc1)C(=O)O; 2Thi = N[C@@H](Cc1cccs1)C(=O)O; Cha = N[C@@H](CC1CCCCC1)C(=O)O; Cit = NC(=O)NCCC[C@H](N)C(=O)O; dCha = N[C@H](CC1CCCCC1)C(=O)O; Carboxymethyl = O=C(O)C*; Nle = CCCC[C@H](N)C(=O)O; Orn = NCCC[C@H](N)C(=O)O; Dab = NCC[C@H](N)C(=O)O; Dap = NC[C@H](N)C(=O)O; NHCH2CH2OMe = COCCN*

What follows are compounds tested against T1, human PD-1 / PD-L1-Ig binding on Jurkat cell line over-expressing human PD-1 (Jurkat-PD-1) (Homo sapiens, UniProt Q15116) (assay: Jurkat-PD-1 Cell Binding High-Content Screening Assay (CBA)). Details: Jurkat-PD-1 cells, PE-labeled PD-L1-Ig 20 nM final; read-out: Jurkat HPD1_PDL1 IC50.
T1 construct: expressed in transfected cells; host or cells: Jurkat
Format: cell-based
Outline: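 Read-out: high-content imaging of PE-tagged PD-L1-Ig bound to Jurkat cells overexpressing human PD-1, after fixation with 4% paraformaldehyde and Hoechst 33342 nuclear staining. Ligand was used at 20 nM final for 1 hour, after a 2 h compound exposure at 37° C in serum-containing DMEM.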

T1 sequence (Q15116 25-288): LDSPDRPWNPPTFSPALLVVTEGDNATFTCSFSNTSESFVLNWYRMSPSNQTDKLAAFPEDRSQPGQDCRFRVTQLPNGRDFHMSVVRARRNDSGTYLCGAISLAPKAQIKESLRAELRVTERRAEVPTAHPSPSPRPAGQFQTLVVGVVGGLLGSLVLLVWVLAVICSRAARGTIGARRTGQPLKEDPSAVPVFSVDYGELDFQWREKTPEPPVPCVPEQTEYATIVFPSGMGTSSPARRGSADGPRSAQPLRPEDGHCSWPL

Q: For `Cc1cccc(C[C@@H]2NC(=O)[C@H](CC(=O)O)NC(=O)[C@H](Cc3ccc(C(=O)O)cc3)NC(=O)[C@H](Cc3ccncc3)NC(=O)CSC[C@@H](C(N)=O)NC(=O)[C@H]([C@@H](C)O)NC(=O)[C@H](C(C)C)NC(=O)[C@H](CC(C)C)NC(=O)[C@H](CCN)NC(=O)[C@@H](CC(C)C)NC(=O)[C@H](CCCN)NC(=O)[C@H](CCCNC(N)=O)NC(=O)[C@H](Cc3ccc(-c4ccccc4)cc3)NC(=O)[C@H](C(C)C)NC2=O)c1` [Compound 2267] ({CH2CO}-[4Pal][Phe(4-COOH)]D[Phe(3-Me)]V[Bip][Cit][Orn][dL][Dab]LVTC-NH2; thioether N-14), which IC50 is on record?
A: 44.8 nM

Q: With `CCCC[C@@H]1NC(=O)[C@H](CCN)NC(=O)[C@@H](CC(C)C)NC(=O)[C@H](CCCN)NC(=O)[C@H](CCCNC(N)=O)NC(=O)[C@H](Cc2ccc(-c3ccccc3)cc2)NC(=O)[C@H](C(C)C)NC(=O)[C@H](Cc2c[nH]c3ccccc23)NC(=O)[C@H](CC(=O)O)NC(=O)[C@H](Cc2ccc(O)cc2)NC(=O)[C@H](Cc2ccc(OCC(=O)O)cc2)NC(=O)CSC[C@@H](C(=O)N[C@@H](C)C(N)=O)NC(=O)[C@H]([C@@H](C)O)NC(=O)[C@H](C(C)C)NC1=O` [Compound 1166] ({CH2CO}-Y(Carboxymethyl)YDWV[Bip][Cit][Orn][dL][Dab][Nle]VTCA-NH2; thioether N-14) as the compound, how does the IC50 read?
A: 58.3 nM

Q: For `Cc1cccc(C[C@@H]2NC(=O)[C@H](CC(=O)O)NC(=O)[C@H](Cc3ccc(OCC(=O)O)cc3)NC(=O)[C@H](CN)NC(=O)CSC[C@@H](C(=O)N[C@@H](C)C(N)=O)NC(=O)[C@H]([C@@H](C)O)NC(=O)[C@H](C(C)C)NC(=O)[C@H](CC3CCCCC3)NC(=O)[C@H](CCN)NC(=O)[C@@H](CC(C)C)NC(=O)[C@H](CCCN)NC(=O)[C@H](C(C)C)NC(=O)[C@H](Cc3ccc(-c4ccccc4)cc3)NC(=O)[C@H](C(C)C)NC2=O)c1` [Compound 1212], which IC50 is on record?
A: 6 nM

Q: How did the IC50 turn out when `CC(C)C[C@@H]1NC(=O)[C@H](Cc2c[nH]c3ccccc23)NC(=O)[C@H](CC(=O)O)NC(=O)[C@H](Cc2ccncc2)NC(=O)[C@H](CN)NC(=O)CSC[C@@H](C(=O)NCC(N)=O)NC(=O)[C@H](CO)NC(=O)[C@H](C(C)C)NC(=O)[C@H](CC(C)C)NC(=O)[C@H](CC(N)=O)NC(=O)[C@@H](CC(C)C)NC(=O)[C@H](CN)NC(=O)[C@H](C(C)C)NC(=O)[C@H](Cc2ccc(-c3ccccc3)cc2)NC1=O` [Compound 1277] ({CH2CO}-[Dap][4Pal]DWL[Bip]V[Dap][dL]NLVSCG-NH2; thioether N-14) was run?
A: 8.6 nM

Q: Which IC50 does the source give for `CC(C)C[C@@H]1NC(=O)[C@H](Cc2c[nH]c3ccccc23)NC(=O)[C@H](CC(=O)O)NC(=O)[C@H](Cc2ccc(O)cc2)NC(=O)[C@H](Cc2ccccc2)NC(=O)CSC[C@@H](C(=O)NCC(N)=O)NC(=O)[C@H]([C@@H](C)O)NC(=O)[C@H](C(C)C)NC(=O)[C@H](CC(C)C)NC(=O)[C@H](CCN)NC(=O)[C@@H](CC(C)C)NC(=O)[C@H](CCCN)NC(=O)[C@H](C(C)C)NC(=O)[C@H](Cc2ccc(-c3ccccc3)cc2)NC1=O` [Compound 1068] ({CH2CO}-FYDWL[Bip]V[Orn][dL][Dab]LVTCG-NH2; thioether N-14) here?
A: 17.4 nM

Q: How did the IC50 turn out when `CC(C)C[C@H]1NC(=O)[C@H](CCCN)NC(=O)[C@H](CCC(=O)O)NC(=O)[C@H](Cc2ccc(-c3ccccc3)cc2)NC(=O)[C@H](C(C)C)NC(=O)[C@H](Cc2c[nH]c3ccccc23)NC(=O)[C@H](CC(=O)O)NC(=O)[C@H](Cc2cccs2)NC(=O)[C@H](CN)NC(=O)CSC[C@@H](C(=O)N[C@@H](C)C(N)=O)NC(=O)[C@H]([C@@H](C)O)NC(=O)[C@H](C(C)C)NC(=O)[C@H](CC2CCCCC2)NC(=O)[C@H](CCN)NC1=O` [Compound 2192] ({CH2CO}-[Dap][2Thi]DWV[Bip]E[Orn][dL][Dab][Cha]VTCA-NH2; thioether N-14) was run?
A: 18.4 nM

Q: With `COCCNC(=O)[C@H](CCN)NC(=O)[C@@H]1CSCC(=O)N[C@@H]([C@@H](C)O)C(=O)N[C@@H](Cc2ccc(C(=O)O)cc2)C(=O)N[C@@H](CC(=O)O)C(=O)N[C@@H](Cc2cccc(C)c2)C(=O)N[C@@H](Cc2ccc(OCC(=O)O)cc2)C(=O)N[C@@H](Cc2ccc(-c3ccccc3)cc2)C(=O)N[C@@H](Cc2ccc(OCC(=O)O)cc2)C(=O)N[C@@H](CCCN)C(=O)N[C@H](CC(C)C)C(=O)N[C@@H](CCN)C(=O)N[C@@H](CC2CCCCC2)C(=O)N[C@@H](C(C)(C)O)C(=O)N[C@@H](CO)C(=O)N1` [Compound 2077] ({CH2CO}-T[Phe(4-COOH)]D[Phe(3-Me)]Y(Carboxymethyl)[Bip]Y(Carboxymethyl)[Orn][dL][Dab][Cha][Val(3-OH)]SC[Dab]-NHCH2CH2OMe; thioether N-14) as the compound, how does the IC50 read?
A: 7.3 nM

Q: How did the IC50 turn out when `CC[C@@H](C)[C@@H]1NC(=O)[C@H](Cc2ccc(-c3ccccc3)cc2)NC(=O)[C@H](C(C)C)NC(=O)[C@H](Cc2c[nH]c3ccccc23)NC(=O)[C@H](CC(=O)O)NC(=O)[C@H](Cc2ccc(OCC(=O)O)cc2)NC(=O)[C@H](Cc2ccncc2)NC(=O)CSC[C@@H](C(=O)N[C@@H](C)C(N)=O)NC(=O)[C@H]([C@@H](C)O)NC(=O)[C@H](C(C)C)NC(=O)[C@H](CC2CCCCC2)NC(=O)[C@H](CCN)NC(=O)[C@@H](CC2CCCCC2)NC(=O)[C@H](CCCN)NC1=O` [Compound 1628] ({CH2CO}-[4Pal]Y(Carboxymethyl)DWV[Bip][aIle][Orn][dCha][Dab][Cha]VTCA-NH2; thioether N-14) was run?
A: 24.9 nM

Q: Which IC50 does the source give for `CC(C)C[C@@H]1NC(=O)[C@H](Cc2c[nH]c3ccccc23)NC(=O)[C@H](CC(=O)O)NC(=O)[C@H](Cc2ccc(O)cc2)NC(=O)[C@H](Cc2ccccc2)NC(=O)CSC[C@@H](C(=O)NCC(N)=O)NC(=O)[C@H](CO)NC(=O)[C@H](C(C)C)NC(=O)[C@H](CC(C)C)NC(=O)[C@H](CC(N)=O)NC(=O)[C@@H](CC(C)C)NC(=O)[C@H](CCN)NC(=O)[C@H](C(C)C)NC(=O)[C@H](Cc2ccc(-c3ccccc3)cc2)NC1=O` [Compound 1059] ({CH2CO}-FYDWL[Bip]V[Dab][dL]NLVSCG-NH2; thioether N-14) here?
A: 28.5 nM

Q: For `CC[C@@H](C)[C@@H]1NC(=O)[C@H](Cc2ccc(-c3ccccc3)cc2)NC(=O)[C@H](C(C)C)NC(=O)[C@H](Cc2cccc(C)c2)NC(=O)[C@H](CC(=O)O)NC(=O)[C@H](Cc2ccc(C(=O)O)cc2)NC(=O)[C@H](Cc2ccncc2)NC(=O)CSC[C@@H](C(=O)N[C@@H](C)C(N)=O)NC(=O)[C@H]([C@@H](C)O)NC(=O)[C@H](C(C)C)NC(=O)[C@H](CC2CCCCC2)NC(=O)[C@H](CCN)NC(=O)[C@@H](CC(C)C)NC(=O)[C@H](CCCN)NC1=O` [Compound 1620], which IC50 is on record?
A: 5 nM

Q: Which IC50 does the source give for `CC(C)C[C@H]1NC(=O)[C@H](CCCN)NC(=O)[C@H](Cc2ccc(OCC(=O)O)cc2)NC(=O)[C@H](Cc2ccc(-c3ccccc3)cc2)NC(=O)[C@H](Cc2ccc(C(=O)O)cc2)NC(=O)[C@H](Cc2cccc(C(F)(F)F)c2)NC(=O)[C@H](CC(N)=O)NC(=O)[C@H](Cc2ccc(OCC(=O)O)cc2)NC(=O)[C@H](CN2CCOCC2)NC(=O)CSC[C@@H](C(=O)N[C@@H](CCN)C(N)=O)NC(=O)[C@H](CO)NC(=O)[C@H](C(C)C)NC(=O)[C@H](CC2CCCCC2)NC(=O)[C@H](CCN)NC1=O` [Example 2724] ({CH2CO}-[Ala(morpholin-4-yl)]Y(Carboxymethyl)N[Phe(3-CF3)][Phe(4-COOH)][Bip]Y(Carboxymethyl)[Orn][dL][Dab][Cha]VSC[Dab]-NH2; thioether N-14) here?
A: 35.3 nM
